Data reported in US9174951B2, “Glucose transporter inhibitors” (The Ohio State University Research Foundation, priority 2012, dated 2015).

What was measured:
LNCaP cells = test: MTT cell viability assay, LNCaP; assay type: cell-based, human; details: for IC50: 72 h, MTT, 10% FBS
Procedure: Cell Viability Assay. Cell viability was determined using the 3-(4,5-dimethylthiazol-2-yl)-2,5-diphenyltetrazolium bromide (MTT) assay. Cancer cells were seeded at 5000 cells/well and normal cells were seeded at 8000 cells/well in 96-well plates and incubated in 10% FBS-supplemented medium for 24 h. Cells were then treated with individual agents for 72 h. Drug-containing medium was replaced with medium containing MTT (0.5 mg/mL), followed by incubation at 37° C. for 1 h. After removal of medium, the reduced MTT dye in each well was solubilized in 100 μL of DMSO and absorbance at 570 nm was measured.
Compound 30 was evaluated for antiproliferative activity in panels of different human cancer cells lines, including those of prostate, breast and pancreatic cancers. In all experiments, cells were treated with a range of concentrations of Compound 30 in the presence of 10% fetal bovine serum (FBS). Cell viability was then determined after 72 h of treatment using the 3-(4,5-dimethylthiazol-2-yl)-2,5-diphenyltetrazolium bromide (MTT) assay. […] It is noteworthy that despite this high antiproliferative potency, normal human prostate epithelial cells (PrECs) were resistant to the cytotoxic effect of Compound 30 even at 10 μM.

GLUT3 = target: T1, GLUT3 (Homo sapiens, UniProt P11169); test: [3H]2-DG uptake into LNCaP cells overexpressing GLUT3; assay type: cell-based; details: for inhibition at 5 µM: LNCaP cells transfected with GLUT3, 30 min
T1 construct: GLUT3 ORF cDNA was purchased from Origene Technologies; EGFP (from the pEGFP-N2 vector); host or cells: LNCaP
T1 sequence (P11169 1-496): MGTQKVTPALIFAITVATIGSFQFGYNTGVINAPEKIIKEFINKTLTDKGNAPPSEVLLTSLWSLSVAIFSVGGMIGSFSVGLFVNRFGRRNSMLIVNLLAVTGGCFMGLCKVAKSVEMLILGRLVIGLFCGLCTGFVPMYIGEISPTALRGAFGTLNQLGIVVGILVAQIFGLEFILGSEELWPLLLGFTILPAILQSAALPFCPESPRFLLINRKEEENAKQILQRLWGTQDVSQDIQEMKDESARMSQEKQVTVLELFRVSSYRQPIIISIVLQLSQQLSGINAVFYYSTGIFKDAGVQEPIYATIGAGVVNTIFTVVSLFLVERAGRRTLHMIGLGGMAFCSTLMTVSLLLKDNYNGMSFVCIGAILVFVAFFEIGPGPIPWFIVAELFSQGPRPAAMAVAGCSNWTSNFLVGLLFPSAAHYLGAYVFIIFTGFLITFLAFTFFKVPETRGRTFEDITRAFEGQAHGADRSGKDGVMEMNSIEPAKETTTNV
Source text: (§1) As information regarding the expression pattern of individual GLUT members in LNCaP cells was lacking, quantitative real time polymerase chain reaction (qRT-PCR) was used to assess the mRNA levels of the hypoxia-responsive GLUT1 and GLUT3, and three other representative GLUT members, including the class I GLUT2 and GLUT4 and the class II GLUT9. Among these five members, LNCaP cells expressed GLUT1 and, to a much lesser extent, GLUT9, while the mRNA levels of GLUTs2-4 were negligible (FIG. 3B). To examine the isoform specificity of these inhibitors, LNCaP cells were ectopically transfected with plasmids encoding GLUT1, GLUT3, GLUT4, or GLUT9 vis-à-vis the pCMV control vector so that the increased glucose uptake in GLUT-transfected cells relative to pCMV control cells was indicative of the activity of the ectopically expressed GLUT protein.
(§2) Glucose Uptake Assay. LNCaP cells were seeded in six-well plates (3×10^5 cells/well) for 24 h. Cells were washed twice with Krebs-Ringer phosphate buffer (126 mM NaCl, 2.5 mM KCl, 25 mM NaHCO3, 1.2 mM NaH2PO4, 1.2 mM MgCl2, 2.5 mM CaCl2, pH 7.4) and were then treated with individual agents in Krebs-Ringer phosphate buffer. After 1.5 h, glucose uptake was initiated by adding 1 mL Krebs-Ringer buffer containing […] [^3H]2-DG (PerkinElmer Life Science) and […] non-radioactive 2-DG and was terminated by washing with cold PBS. The cells were lysed in […] lysis buffer (10 mM Tris-HCl pH 8.0, 0.1% SDS) and aliquots were taken for measurement of radioactivity using a scintillation counter (Beckman LS6500).
Plasmid Construction, Transient Transfection and Immunoblotting. The full length GLUT1, GLUT4, and GLUT9 ORF cDNA clones were purchased from Addgene (Cambridge, Mass.) and GLUT3 ORF cDNA was purchased from Origene Technologies (Rockville, Md.). GLUT1, GLUT3, and GLUT9 were subcloned into the HindIII/SalI sites and GLUT4 was subcloned into the EcoRI/SalI sites of pEGFP-N2 expression vector (Clontech, Palo Alto, Calif.). […]

GLUT1 = target: T2, GLUT1 (Homo sapiens, UniProt P11166); test: [3H]2-DG uptake into LNCaP cells overexpressing GLUT1; assay type: cell-based; details: for IC50: LNCaP cells overexpressing GLUT1, read-out: IC50 in inhibiting GLUT1-mediated [3H]2-DG uptake; for inhibition at 5 µM: LNCaP cells transfected with GLUT1, 30 min
T2 construct: The full length GLUT1, GLUT4, and GLUT9 ORF cDNA clones were purchased from Addgene; EGFP (from the pEGFP-N2 vector); host or cells: LNCaP
T2 sequence (P11166 1-492): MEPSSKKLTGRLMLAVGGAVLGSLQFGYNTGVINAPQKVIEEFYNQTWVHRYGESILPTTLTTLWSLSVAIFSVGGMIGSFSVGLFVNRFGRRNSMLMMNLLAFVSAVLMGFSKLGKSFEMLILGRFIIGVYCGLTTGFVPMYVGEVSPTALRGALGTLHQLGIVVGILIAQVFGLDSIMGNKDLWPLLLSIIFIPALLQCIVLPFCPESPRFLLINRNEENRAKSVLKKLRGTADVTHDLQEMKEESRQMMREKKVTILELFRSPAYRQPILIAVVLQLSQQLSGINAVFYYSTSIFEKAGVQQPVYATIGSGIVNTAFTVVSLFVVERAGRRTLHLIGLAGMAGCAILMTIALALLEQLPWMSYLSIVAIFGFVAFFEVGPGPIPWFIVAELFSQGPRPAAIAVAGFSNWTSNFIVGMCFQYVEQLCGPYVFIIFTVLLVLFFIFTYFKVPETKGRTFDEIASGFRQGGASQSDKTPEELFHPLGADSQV
Source text: as §1, §2
Plasmid Construction, Transient Transfection and Immunoblotting. The full length GLUT1, GLUT4, and GLUT9 ORF cDNA clones were purchased from Addgene (Cambridge, Mass.) and GLUT3 ORF cDNA was purchased from Origene Technologies (Rockville, Md.). GLUT1, GLUT3, and GLUT9 were subcloned into the HindIII/SalI sites and GLUT4 was subcloned into the EcoRI/SalI sites of pEGFP-N2 expression vector (Clontech, Palo Alto, Calif.). Transfections were performed by electroporation using Nucleofector kit R of the Amaxa Nucleofector system (Lonza, Walkersville, Md.) according to the manufacturer's protocol. Immunoblotting was performed using cells lysates harvested with SDS lysis buffer (1% SDS, 50 mM Tris-HCl pH 8.0, 10 mM EDTA) containing 1× protease inhibitor cocktail (Sigma) and phosphatase inhibitor and were electrophoresed in 8˜12% SDS polyacrylamide gels and then transferred onto nitrocellulose membranes. After blotting in 5% nonfat dry milk, the membranes were incubated with primary antibodies at 1:1,000 dilution in TBS-Tween 20 overnight at 4° C., and then secondary antibodies conjugated with horseradish peroxidase at 1:5,000 dilution in TBS-Tween 20 for 1 hour at room temperature. […]

SMILES: CC(CN1C(=O)S/C(=C\c2ccc(O)c(C(F)(F)F)c2)C1=O)(CC(F)(F)F)CC(F)(F)F [Compound 30, 5-(4-Hydroxy-3-trifluoromethyl-benzylidene)-3-[4,4,4-trifluoro-2-methyl-2-(2,2,2-trifluoro-ethyl)-butyl]-thiazolidine-2,4-dione]
- IC50 (LNCaP cells; Homo sapiens, LNCaP): 1500 nM
- IC50 (LNCaP cells): 1500 to 1700 nM
- improvement over compound 1 (IC50, [3H]-2DG uptake and viability of LNCaP cells) (LNCaP cells; relative to compound 1): 40 fold
- IC50 (GLUT3; LNCaP cells overexpressing GLUT3, read-out: IC50 for GLUT3-mediated [3H]2-DG uptake): ≥ 5000 nM
- inhibition at 5 µM (GLUT3): 48%
- IC50 (GLUT1): 2000 nM
- inhibition at 5 µM (GLUT1): 73%

SMILES: CCC(CC)CN1C(=O)S/C(=C\c2ccc(O)c(C(F)(F)F)c2)C1=O [Compound 5]
- IC50 (LNCaP cells; Homo sapiens, LNCaP): 4200 nM
- inhibition at 5 µM (GLUT3): 41%
- IC50 (GLUT1): 5000 nM
- inhibition at 5 µM (GLUT1): 53%
